Measurements: patent publication US7368434B2, “Compounds useful for the inhibition of ALDH” (The Endowment for Research in Human Biology, Inc., priority 2002, dated 2008)
Several values for one entry are separate records, joined by “and”; a condition that tells them apart may be missing. Equal values may be shown once. Read-outs that look alike come from different tables or passages of the source. Blank lines part the entries; values can stand above or below the compound they belong to.

Columns and labels:
[1] = taken from Fujita et al. (1964); cited from earlier work
MAO = MAO activity assay (membrane fraction of hamster liver mitochondria lysate); type: biochemical; details: for IC50: read-out: MAO inhibition IC50
Method: (§1) Several of the synthesized compounds were tested for MAO and ALDH-2 suppression activity. The membrane and supernatant fractions of the lysate of a gradient purified hamster liver mitochondria preparation were used as sources of MAO and ALDH-2, respectively. ALDH-2 and MAO activity assays were performed according to established procedures (Rooke et al. (2000) J. Med. Chem. 43:4169).

ALDH-2 = molecular target: T1, ALDH-2 (Mesocricetus auratus, UniProt P81178); test: ALDH-2 activity assay (supernatant of hamster liver mitochondria lysate); type: biochemical; details: for IC50: read-out: ALDH-2 inhibition IC50
T1 construct: membrane and supernatant fractions of the lysate of a gradient purified hamster liver mitochondria preparation; from tissue; host or cells: hamster liver mitochondria, supernatant fraction of the lysate
T1 sequence (P81178 20-519): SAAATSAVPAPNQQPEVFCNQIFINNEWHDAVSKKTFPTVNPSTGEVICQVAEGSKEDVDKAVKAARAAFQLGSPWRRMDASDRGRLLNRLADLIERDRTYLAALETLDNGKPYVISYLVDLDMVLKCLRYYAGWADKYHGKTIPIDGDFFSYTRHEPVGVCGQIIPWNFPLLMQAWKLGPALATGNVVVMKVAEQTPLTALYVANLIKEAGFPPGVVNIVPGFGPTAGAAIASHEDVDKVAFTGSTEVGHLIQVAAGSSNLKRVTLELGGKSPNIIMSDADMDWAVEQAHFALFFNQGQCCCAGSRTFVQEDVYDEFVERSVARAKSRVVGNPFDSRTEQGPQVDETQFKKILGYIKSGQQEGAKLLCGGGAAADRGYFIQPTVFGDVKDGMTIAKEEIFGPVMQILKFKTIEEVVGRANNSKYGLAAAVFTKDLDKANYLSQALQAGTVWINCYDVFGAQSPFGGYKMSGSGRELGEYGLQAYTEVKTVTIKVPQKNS
Method: as §1

golden hamsters = test: Ethanol drinking experiments, two-bottle choice; type: in vivo; details: 0.07 mmol/day/hamster for 5 consecutive days
Method: Effects of the newly synthesized analogs on hamster ethanol intake were determined according to the method described below. Animals were male adult golden hamsters (outbred, Lakeview Lak: LVG[SYR]), purchased from Charles River Laboratories, Wilmington, Mass. 01887 or Harlan Sprague Dawley, Inc., Indianapolis, Ind. 46229. Upon arrival, hamsters were housed in a room maintained at 23° C., 35-45% humidity, with a 12/12 hr light/dark cycle (light on 0600-1800 hr), ad libitum access to Purina Chow (5001) and a 15% v/v ethanol solution. After a week, each hamster was transferred to an individual stainless steel cage (26×18×17.5 cm). Two 50 ml drinking bottles, one containing water and the other a 15% ethanol solution, were provided continuously. The bottles were placed in holders equipped with tilted platforms which direct spillage to tubes placed outside of the cages. The positions of the two drinking bottles on each cage were altered daily to prevent development of positional preference. Fluid intake was measured at 0900 hr each day. Hamsters that drank significant (>8 ml/day) and consistent (daily variance <±20%) amounts of ethanol solution were selected for testing. To establish baseline ethanol and water intake, 1 ml sterile saline was administered daily to each hamster between 1500-1600 hr for 6 days (saline control period, Day 1 to Day 6). A daily dose of 0.07 mmol of test compound was then administered for 5 consecutive days (treatment period, Day 7 to Day 11). After the last dose, ethanol and water intake were monitored for another 6 days (post treatment period, Day 12 to Day 17). […] At an equivalent dose, daidzin suppressed ethanol intake by about 55% (Table 1).

[2] = system: 5-HT metabolism in brain slices; test: 5-HT metabolism in rat brain slices; type: cell-based
From the text: (§2) The effects of daidzin on monoamine metabolism were studied in hamster and rat liver and brain using tissue slices using 5-HT as the substrate. The effects of ethanol drinking on 5-HT metabolism in hamster liver and brain were examined. Freshly removed tissues were cut into small pieces (about 1 mm cubes) with a tissue-slicer, suspended in ice-cold phosphate buffered saline (PBS) (0.1 g/ml), and forced through a mesh 40 stainless steel screen mounted on a Millipore Swinnex Filter Holder. The minced tissues were allowed to sediment on ice before PBS was removed using a Pasteur pipette. The tissue slices were washed 5 more times each with 10 volumes of ice-cold PBS. After the final wash, tissues were suspended in 1 volume of PBS and dispensed using a micro-pipette with tips of i.d.=2 mm. 5-HT metabolism catalyzed by the tissue slices was assayed in a 1 ml assay medium containing PBS, 1 μM 5-HT, 100:1 tissue slices, and specified concentrations of daidzin or ethanol. Reactions were initiated by the addition of tissues and allowed to proceed for 30 min at 37° C. in a shaking water bath. Reactions were terminated by addition of 0.1 ml ice-cold 1 M HClO4, and 10 mM EDTA. […] Contents of 5-HT, 5-HIAL, 5-HTOL and 5-HIAA in the supernatants were analyzed by HPLC as described before (Rooke et al. (2000) J. Med. Chem. 43:4169).

[3] = system: 5-HT metabolism in brain slices; test: 5-HT metabolism in hamster brain slices; type: cell-based
From the text: as §2

[4] = system: Syrian golden hamsters (Meso cricetus auratus); test: Oral potency: compound mixed in chow, two-bottle free-choice ethanol intake; type: in vivo; details: for Ethanol intake reduced by: oral
Method: The oral potency of hexzein (7-O-ω-carboxypentyldaidzein) in reducing ethanol intake in Syrian golden hamsters (Meso cricetus auratus) was examined under a two-bottle free-choice protocol. Hexzein was mixed with Purina rodent meal (5755M) at 0 mg: 1 g (control), 2 mg: 1 g, 4 mg: 1 g, and 5 mg: 1 g ratios and the mixtures were pressed into 1×1×0.5 inch pellets. Food pellets, ethanol solution and water were provided continuously throughout the study and their intake were measured every day at 5 pm. Hexzein given in this manner did reduce ethanol intake. Ethanol intake in hamsters on 2 mg/g, 4 mg/g, and 5 mg/g hexzein-Chow were reduced by 18.3±3.8%, 47.8±7.4% and 56.5±5.4%, respectively.

[5] = Tissue distribution study, liver of hamsters on compound-Chow; type: in vivo, hamster
[6] = system: 5-HT metabolism in rat liver slices; test: 5-HT metabolism catalyzed by rat liver slices; type: cell-based
From the text: (§3) The effects of daidzin on monoamine metabolism were studied in hamster and rat liver and brain using tissue slices using 5-HT as the substrate. The effects of ethanol drinking on 5-HT metabolism in hamster liver and brain were examined. Freshly removed tissues were cut into small pieces (about 1 mm cubes) with a tissue-slicer, suspended in ice-cold phosphate buffered saline (PBS) (0.1 g/ml), and forced through a mesh 40 stainless steel screen mounted on a Millipore Swinnex Filter Holder. The minced tissues were allowed to sediment on ice before PBS was removed using a Pasteur pipette. The tissue slices were washed 5 more times each with 10 volumes of ice-cold PBS. After the final wash, tissues were suspended in 1 volume of PBS and dispensed using a micro-pipette with tips of i.d.=2 mm. 5-HT metabolism catalyzed by the tissue slices was assayed in a 1 ml assay medium containing PBS, 1 μM 5-HT, 100:1 tissue slices, and specified concentrations of daidzin or ethanol. Reactions were initiated by the addition of tissues and allowed to proceed for 30 min at 37° C. in a shaking water bath. Reactions were terminated by addition of 0.1 ml ice-cold 1 M HClO4, and 10 mM EDTA. Samples were kept on ice for 30 min and centrifuged to obtained clear supernatants. Contents of 5-HT, 5-HIAL, 5-HTOL and 5-HIAA in the supernatants were analyzed by HPLC as described before (Rooke et al. (2000) J. Med. Chem. 43:4169).

[7] = system: 5-HT metabolism in hamster liver slices; test: 5-HT metabolism catalyzed by hamster liver slices; type: cell-based
From the text: as §3

[8] = Urine [5-HTOL]/[5-HIAA] ratio after daidzin administration; type: in vivo; details: dose that would suppress hamster ethanol intake by about 50%
[9] = system: isolated hamster liver mitochondria; details: cited from earlier work
rats = details: cited from earlier work
[10] = system: isolated rat liver mitochondria; details: cited from earlier work
[11] = system: ethanol-preferring Syrian golden hamsters; details: cited from earlier work

Compound: 4′-Bromoisoflavone 7-ω-Ethoxycarbonylpentyl Ether [Analog 26]
π (hydrophobic constant of the 4′-substituent) [1]: 0.86

Compound: 7-Ethoxycarbonylpentyl-4′-Aminoisoflavone [Analog 33]
π (hydrophobic constant of the 4′-substituent) [1]: −1.23

Compound: COc1ccc2c(=O)c(-c3ccc(O)cc3)coc2c1 [Analog 2, 7-Methoxy-4′-Hydroxyisoflavone]
π (hydrophobic constant of the 4′-substituent) [1]: −0.67

Compound: COc1ccc2c(=O)c(-c3ccccc3)coc2c1 [Analog 3, 7-Methoxyisoflavone]
π (hydrophobic constant of the 4′-substituent) [1]: 0.00

Compound: CCOC(=O)CCCCCOc1ccc2c(=O)c(-c3ccccc3)coc2c1 [Analog 7, 7-O-Ethoxycarbonylpentylisoflavone]
π (hydrophobic constant of the 4′-substituent) [1]: 0.00

Compound: O=C1c2ccccc2C(=O)N1CCCCOc1ccc2c(=O)c(-c3ccccc3)coc2c1 [Analog 14]
EtOH intake suppression, % (golden hamsters): 37 ± 3%
IC50 (ALDH-2): 0.14 to 8 µM
MAO inhibition (in words) (MAO): none of the 4′-H series (analogs 3, 5, 7, 9, 12 and 14) had any effect on MAO

Compound: CCOC(=O)c1oc2cc(O)ccc2c(=O)c1-c1ccccc1 [Analog 20, 2-Ethoxycarbonyl-7-Hydroxyisoflavone]
melting point: 213 to 214 °C

Compound: CCOC(=O)c1oc2cc(O)ccc2c(=O)c1-c1ccccc1 [Analog 20]
ALDH-2 inhibition (in words) (ALDH-2): no effect on ALDH-2 activity

Compound: CCOC(=O)CCCCCOc1ccc2c(=O)c(-c3ccc(F)cc3)coc2c1 [Analog 24, 7-O-Ethoxycarbonylpentyl-4′-Fluoroisoflavone]
π (hydrophobic constant of the 4′-substituent) [1]: 0.14

Compound: CCOC(=O)CCCCCOc1ccc2c(=O)c(-c3ccc([N+](=O)[O-])cc3)coc2c1 [Analog 28, 7-O-Ethoxycarbonylpentyl-4′-Nitroisoflavone]
π (hydrophobic constant of the 4′-substituent) [1]: −0.28

Compound: CCOC(=O)CCCCCOc1ccc2c(=O)c(-c3ccc(C)cc3)coc2c1 [Analog 30, 7-O-Ethoxycarbonylpentyl-4′-Methylisoflavone]
π (hydrophobic constant of the 4′-substituent) [1]: 0.56

Compound: COc1ccc2c(=O)c(-c3ccccc3)coc2c1OC [Analog 34, 7,8-Dimethoxyisoflavone]
melting point: 143 to 144 °C

Compound: COc1ccc2c(=O)c(-c3ccccc3)coc2c1OC [Analog 34]
ALDH-2 inhibition (in words) (ALDH-2): completely abolished ALDH-2 inhibitory activities
Potency for MAO inhibition compared with counterpart analogs (in words) (MAO): substantially decreased potencies for MAO inhibition

Compound: CCO [Ethanol, ethanol]
Effect on 5-HT metabolism (in words) [2]: did not effect 5-HT metabolism
Effect on 5-HT metabolism (in words) [3]: did not effect 5-HT metabolism

Compound: O=C(O)CCCCCOc1ccc2c(=O)c(-c3ccc(O)cc3)coc2c1 [Hexzein, 7-O-ω-carboxypentyldaidzein]
Ethanol intake reduced by ([4]; 2 mg/g hexzein-Chow): 18.3±3.8%
Ethanol intake reduced by ([4]; 4 mg/g hexzein-Chow): 47.8±7.4%
Ethanol intake reduced by ([4]; 5 mg/g hexzein-Chow): 56.5±5.4%
EtOH intake suppression, % (golden hamsters): 69 ± 12%
Concentration found in the liver (in words) ([5]; hamster, in vivo): pharmacologically relevant concentrations

Compound: Daidzin [Analog 42]
5-HT depletion [6]: not 5-HT depletion
5-HTOL formation [6]: increases in the formation of 5-HTOL
5-HIAA formation ([6]; 1 μM 5-HT, 30 min at 37° C.): inhibited 5-HIAA formation
Effect on ethanol intake (in words) ([4]; oral in chow, similar manner and equivalent dose range): failed to reduce ethanol intake
5-HT depletion [7]: not 5-HT depletion
5-HTOL formation [7]: increases in the formation of 5-HTOL
5-HIAA formation ([7]; 1 μM 5-HT, 30 min at 37° C.): inhibited 5-HIAA formation
Effect on 5-HT metabolism (in words) [2]: did not effect 5-HT metabolism
urine [5-HTOL]/[5-HIAA] ratio [8]: increased urine [5-HTOL]/[5-HIAA] ratio
Effect on 5-HT metabolism (in words) [3]: did not effect 5-HT metabolism
EtOH intake suppression, % (golden hamsters): about 55%
Conversion of 5-HT and DA into 5-HIAA and DOPAC [9]: inhibits the conversion of monoamines
Ethanol intake (in words) (rats): selectively suppress ethanol intake
Conversion of 5-HT and DA into 5-HIAA and DOPAC [10]: inhibits the conversion of monoamines
Ethanol intake (in words) ([11]; administered orally): does not affect hamster ethanol intake
Ethanol intake (in words) ([11]; ethanol-preferring Syrian golden hamsters): selectively suppress ethanol intake
Concentration found in the liver (in words) ([5]; hamsters on compound-Chow): no daidzin could be detected

Second part, led by results:

IC50 (MAO): 8.6 µM
Compound: O=c1c(-c2ccccc2)coc2cc(O)ccc12 [Analog 1]

IC50 (ALDH-2): 0.14 to 8 µM
Compound: CC(=O)Oc1ccc2c(=O)c(-c3ccccc3)coc2c1 [Analog 10]

IC50 (ALDH-2): 0.14 to 8 µM
Compound: O=c1c(-c2ccc(O)cc2)coc2cc(OCn3nnc4ccccc43)ccc12 [Analog 18]

melting point: 257 to 258 °C
Compound: O=C(O)c1oc2cc(O)ccc2c(=O)c1-c1ccccc1 [Analog 21, 2-Carboxy-7-Hydroxyisoflavone]

IC50 (MAO): 1.5 µM
Compound: O=c1c(-c2ccc(F)cc2)coc2cc(O)ccc12 [Analog 23]

melting point: 266 to 268 °C
Compound: O=c1c(-c2ccc(Br)cc2)coc2cc(O)ccc12 [Analog 25, 7-Hydroxy-4′-Bromoisoflavone]

IC50 (MAO): 1 µM
Compound: O=c1c(-c2ccc(Br)cc2)coc2cc(O)ccc12 [Analog 25]

IC50 (MAO): 9 µM
Compound: Cc1ccc(-c2coc3cc(O)ccc3c2=O)cc1 [Analog 29]

IC50 (MAO): 12 µM and > 9 µM
Compound: Nc1ccc(-c2coc3cc(O)ccc3c2=O)cc1 [Analog 32]

melting point: 103 to 104 °C
Compound: CCc1ccc2c(=O)c(-c3ccccc3)coc2c1 [Analog 35, 7-Ethylisoflavone]

IC50 (MAO): 12 µM
Compound: O=c1c(-c2ccc(O)cc2)coc2cc(O)ccc12 [Analog 40]
EtOH intake suppression, % (golden hamsters): 22 ± 5%
